In patent publication US6541493B1, “Crystals of 5-[{6-(2-fluorobenzyl)oxy-2-naphthyl}methyl]-2,4-thiazolidinedione” (Mitsubishi Chemical Corporation, priority 1999, dated 2003):
Entries after “also recorded” stand apart in the source; their conditions may differ. Each block holds one compound with its values, some of them ahead of it.

Experiments:
Format in all cases: physicochemical
[1] = Thermal stability (oven heating, powder X-ray diffraction); conditions: about 50 mg in glass bottle, under atmosphere in oven at 70° C. for 24 hours
Protocol: A sample (about 50 mg) of each of the crystals of types A, C and D was placed in a transparent glass bottle, and heated under atmosphere in an oven at 70° C. for 24 hours. After cooling, powder X-ray diffraction pattern was measured to examine a change of the crystal form.

[2] = Stability to physical impact (grinding in agate mortar, powder X-ray diffraction); conditions: 1 g ground for 1 minute in agate mortar, powder X-ray diffraction pattern compared with before grinding
Protocol: A sample (1 g) of each of the type A-D crystals was placed in an agate mortar, and ground for 1 minute, and powder X-ray diffraction pattern of the ground sample was determined. The pattern was compared with that of the crystal form before the grinding to examine a change of the crystal form.

[3] = Stability in a solvent (heated with stirring in suspension); conditions: heated with stirring in suspension in water, methylene chloride, hexane, ethyl acetate-hexane and ethanol
Excerpt: The type A crystals were heated with stirring in a state of suspension in a variety of solvents including water, methylene chloride, hexane, ethyl acetate-hexane and ethanol, and then examined the absence or presence of a change of the crystal form after the treatment.

- Change of the crystal form after heating [1]: no change
Structure (SMILES): O=C1NC(=O)C(Cc2ccc3cc(OCc4ccccc4F)ccc3c2)S1 (centres unmarked) [Crystal form D, 5-[{6-(2-fluorobenzyl)oxy-2-naphthyl}methyl]-2,4-thiazolidinedione]
- Change after grinding ([2]; listed as D): Partial changes; also recorded: Partially changed

- Change of the crystal form after heating ([1]; listed as type A): no change
- Change after grinding ([2]; listed as A): No change
- Change of the crystal form after treatment in solvents [3]: no change
Structure (SMILES): O=C1NC(=O)C(Cc2ccc3cc(OCc4ccccc4F)ccc3c2)S1 (centres unmarked) [Crystal form A, 5-[{6-(2-fluorobenzyl)oxy-2-naphthyl}methyl]-2,4-thiazolidinedione]

- Change of the crystal form after heating ([1]; listed as type C): partial change
- Change after grinding ([2]; listed as C): No change
Structure (SMILES): O=C1NC(=O)C(Cc2ccc3cc(OCc4ccccc4F)ccc3c2)S1 (centres unmarked) [Crystal form C, 5-[{6-(2-fluorobenzyl)oxy-2-naphthyl}methyl]-2,4-thiazolidinedione]

Structure (SMILES): O=C1NC(=O)C(Cc2ccc3cc(OCc4ccccc4F)ccc3c2)S1 (centres unmarked) [Crystal form B, 5-[{6-(2-fluorobenzyl)oxy-2-naphthyl}methyl]-2,4-thiazolidinedione]
- Change after grinding ([2]; listed as B): Partial changes; also recorded: Partially changed
